Reference: patent US20070142462A1, “Method of Treating Cancer” (The University of Utah, priority 2000, published 2007)

Legend:
NF-κB = experiment: EMSA of constitutive nuclear NF-κB DNA binding, MDA-MB-453; format: cell-based, human; conditions: MDA-MB-453 breast carcinoma; catalase 3,000 U/ml for 24 hours
Protocol: The effect of antioxidants on nuclear activation of NF-κB was studied by incubating near confluent (70%) cell cultures with antioxidant treatments for 1-48 hours. Nuclear protein was harvested, and EMSAs were performed using DNA consensus binding sequences, or nuclear translocation of the p65 component of NF-κB was studied by immunoperoxidase staining, as outlined below.
Electrophoretic Mobility Shift Assays (EMSAs). Nuclear protein was isolated and DNA binding reactions were performed as previously described in detail, Kennedy et al., Am. J. Respir. Cell Mol. Biol. 19:366-378 (1998). Monolayers were washed twice in cold DPBS and equilibrated 10 min on ice with 0.7 ml cold cytoplasmic extraction buffer, CEB (10 mM Tris, pH 7.9, 60 mM KCl, 1 mM EDTA, 1 mM DTT) with protease inhibitors, PI (1 mM Pefabloc, 50 μg/ml antipain, 1 μg/ml leupeptin, 1 μg/ml pepstatin, 40 μg/ml bestatin, 3 μg/ml E-64 and 100 μg/ml chymostatin). […] DNA-protein binding reactions were performed with 2 μg of nuclear protein (as determined by the Pierce method) and 30-80,000 cpm of ^32P-end-labelled double-stranded DNA probe in 10 mM Tris-HCl, pH 7.5, 50 mM NaCl, 0.5 mM EDTA, 0.5 mM DTT, 1 mM MgCl2, 50 μg/ml poly dI-dC, and 4% glycerol. […] Gels were dried and analyzed by autoradiography at −80° C. using an image intensifier screen. […]

[1] = system: phosphorylated IκBα (IκBα-P); experiment: Immunoassay for phosphorylated IκBα; format: cell-based, human; conditions: M1619; catalase 3,000 U/ml for 24 hours
Protocol: The effect of antioxidants on expression of cell cyclins, cyclin-associated kinases, cell cycle inhibitors and IκBα was studied by incubating near confluent cell cultures with antioxidant treatments for 15 min-48 hours. Cells were lysed and protein levels were measured by immunoblot assay as described below. In other experiments, the ratio of phosphorylated-IκBα to total IκBα was determined by harvest of cytosolic protein 24 hours after treating cultures with 3,000 U/ml catalase.
The NF-κB inhibitor IκBα and phosphorylated IκBα were assayed with several modifications of the above procedure. Cells were lysed in boiling buffer to which 50 mM DTT had been added as a reducing agent. Immunoassay of IκBα. proceeded as above, but samples for measurement of phosphorylated IκBα were blocked 2 hours at room temperature and incubated overnight at 4° C. with primary phospho-specific antibodies diluted 1:1000 in PBS with 0.1% Tween and 5% BSA.
M1619 cells either treated with catalase with 3,000 U/ml for 24 hours or untreated were used in immunoassays for phosphorylated IκBα (IκBα-P) using phospho-specific antibody as described above.
Mean ratios of the densitometrically determined sum intensities of IκBα-P staining in the immunoassay experiments are shown in FIG. 5B.

M1619 cells = experiment: Cytotoxicity by trypan blue; format: cell-based; conditions: catalase treatment; 24 hours
Protocol: Measurement of Cytotoxicity and Apoptosis. To assess for cytotoxicity, near confluent cells cultured in 24 well plates were exposed to antioxidants or withdrawn from serum for 24 hours. Medium was removed, and replaced with Dulbecco=s phosphate buffered saline (DPBS) containing 0.1% trypan blue. […] To assess for apoptosis, cells grown on glass slides were treated with antioxidants for 24 hours. Apoptosis was studied by terminal deoxynucleotidyl transferase (TdT) dependent 3′BOH fluorescein end-labeling of DNA fragments, using a Fluorescein-FragEL™ DNA fragmentation detection kit (Oncogene Research Products, Cambridge, Mass.). DNase-treated fixed cells were used as a positive control.

## Catalase
NF-κB
  constitutive nuclear DNA binding activity for NF-κB: suppressed
[1]
  amount of IκBα that is phosphorylated: decreases
M1619 cells
  trypan blue dye exclusion: significantly increased
